How the values were obtained:
[1] = test system: Tyrosine-protein kinase ABL1 (Homo sapiens), P00519 [Y253F]; experiment: Inhibition of human phosphorylated ABL1 Y253F mutant (S229 to K512 residues) expressed in mammalian expression system assessed as residual activity at 1 uM by Kinomescan method relative to control
[2] = target: Tyrosine-protein kinase receptor UFO (Homo sapiens) (UniProt P30530); experiment: Inhibition of wild-type human partial length AXL (R497 to Y821 residues) expressed in bacterial expression system assessed as residual activity at 1 uM by Kinomescan method relative to control
[3] = target: Calcium/calmodulin-dependent protein kinase kinase 1 (Homo sapiens) (UniProt Q8N5S9); experiment: Inhibition of wild-type human partial length CAMKK1 (R65 to E414 residues) expressed in bacterial expression system assessed as residual activity at 1 uM by Kinomescan method relative to control
[4] = target: Casein kinase I isoform alpha (Homo sapiens) (UniProt P48729); experiment: Inhibition of wild-type human partial length CSNK1A1 (M1 to L450 residues) expressed in mammalian expression system assessed as residual activity at 1 uM by Kinomescan method relative to control
[5] = target: Casein kinase I isoform alpha-like (Homo sapiens) (UniProt Q8N752); experiment: Inhibition of wild-type human full length CSNK1A1L (M1 to N337 residues) expressed in bacterial expression system assessed as residual activity at 1 uM by Kinomescan method relative to control
[6] = target: Epithelial discoidin domain-containing receptor 1 (Homo sapiens) (UniProt Q08345); experiment: Inhibition of wild-type human partial length DDR1 (R565 to V876 residues) expressed in bacterial expression system assessed as residual activity at 1 uM by Kinomescan method relative to control
[7] = target: Dual specificity tyrosine-phosphorylation-regulated kinase 2 (Homo sapiens) (UniProt Q92630); experiment: Inhibition of wild-type human full length DYRK2 (M1 to S528 residues) expressed in mammalian expression system assessed as residual activity at 1 uM by Kinomescan method relative to control
Chain of Dual specificity tyrosine-phosphorylation-regulated kinase 2 (Homo sapiens) (Q92630 whole entry, the tested form may be a part): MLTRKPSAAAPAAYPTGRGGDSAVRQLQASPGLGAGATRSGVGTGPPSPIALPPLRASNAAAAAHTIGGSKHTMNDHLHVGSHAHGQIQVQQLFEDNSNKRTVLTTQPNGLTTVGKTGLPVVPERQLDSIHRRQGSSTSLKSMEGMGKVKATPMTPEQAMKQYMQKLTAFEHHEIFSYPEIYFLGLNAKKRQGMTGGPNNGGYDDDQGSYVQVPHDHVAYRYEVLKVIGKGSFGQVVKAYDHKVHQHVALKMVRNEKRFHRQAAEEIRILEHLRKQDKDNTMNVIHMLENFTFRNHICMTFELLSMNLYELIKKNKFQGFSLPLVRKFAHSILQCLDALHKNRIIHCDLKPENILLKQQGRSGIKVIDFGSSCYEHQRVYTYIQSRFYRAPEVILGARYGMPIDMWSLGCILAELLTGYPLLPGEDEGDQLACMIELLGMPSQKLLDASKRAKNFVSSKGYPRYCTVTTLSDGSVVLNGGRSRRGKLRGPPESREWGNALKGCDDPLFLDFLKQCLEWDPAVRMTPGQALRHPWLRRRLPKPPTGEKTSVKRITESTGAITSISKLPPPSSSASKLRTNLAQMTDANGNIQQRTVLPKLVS

[8] = target: Vascular endothelial growth factor receptor 1 (Homo sapiens) (UniProt P17948); experiment: Inhibition of wild-type human partial length FLT1 (R781 to F1239 residues) expressed in bacterial expression system assessed as residual activity at 1 uM by Kinomescan method relative to control
Chain of Vascular endothelial growth factor receptor 1 (Homo sapiens) (P17948 whole entry, the tested form may be a part): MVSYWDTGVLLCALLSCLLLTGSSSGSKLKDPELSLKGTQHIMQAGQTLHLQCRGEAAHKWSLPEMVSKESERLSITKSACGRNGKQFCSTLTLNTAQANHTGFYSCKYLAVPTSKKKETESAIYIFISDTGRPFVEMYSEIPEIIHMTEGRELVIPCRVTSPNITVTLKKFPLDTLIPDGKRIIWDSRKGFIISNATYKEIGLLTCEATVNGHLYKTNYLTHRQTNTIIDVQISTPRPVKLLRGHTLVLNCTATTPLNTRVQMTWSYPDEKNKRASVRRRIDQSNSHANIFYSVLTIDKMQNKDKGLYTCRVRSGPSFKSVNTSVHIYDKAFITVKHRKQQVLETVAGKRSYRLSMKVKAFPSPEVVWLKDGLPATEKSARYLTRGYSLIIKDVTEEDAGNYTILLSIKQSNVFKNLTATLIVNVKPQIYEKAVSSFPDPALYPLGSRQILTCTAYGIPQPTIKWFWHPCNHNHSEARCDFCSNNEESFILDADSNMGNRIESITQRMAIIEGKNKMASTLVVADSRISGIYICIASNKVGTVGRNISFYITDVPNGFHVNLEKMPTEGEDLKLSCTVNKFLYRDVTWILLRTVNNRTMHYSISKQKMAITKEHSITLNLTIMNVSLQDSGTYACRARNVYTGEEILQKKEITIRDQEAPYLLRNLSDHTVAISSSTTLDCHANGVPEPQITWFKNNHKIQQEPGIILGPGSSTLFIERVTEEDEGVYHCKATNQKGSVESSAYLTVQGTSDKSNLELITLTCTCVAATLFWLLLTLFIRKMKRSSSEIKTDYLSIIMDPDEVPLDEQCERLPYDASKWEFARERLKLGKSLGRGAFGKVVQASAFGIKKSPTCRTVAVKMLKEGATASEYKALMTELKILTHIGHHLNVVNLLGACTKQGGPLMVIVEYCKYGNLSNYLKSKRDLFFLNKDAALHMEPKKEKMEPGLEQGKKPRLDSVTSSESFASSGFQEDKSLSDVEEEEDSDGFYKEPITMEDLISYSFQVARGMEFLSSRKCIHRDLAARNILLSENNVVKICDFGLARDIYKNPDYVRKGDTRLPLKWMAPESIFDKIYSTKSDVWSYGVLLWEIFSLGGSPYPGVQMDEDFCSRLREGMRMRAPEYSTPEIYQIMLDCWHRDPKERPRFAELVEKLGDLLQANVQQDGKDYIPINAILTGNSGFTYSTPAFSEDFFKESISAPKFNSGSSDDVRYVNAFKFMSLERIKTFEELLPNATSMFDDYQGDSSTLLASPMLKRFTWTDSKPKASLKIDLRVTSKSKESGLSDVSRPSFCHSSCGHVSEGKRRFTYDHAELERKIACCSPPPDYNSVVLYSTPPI

[9] = target: Vascular endothelial growth factor receptor 3 (Homo sapiens) (UniProt P35916); experiment: Inhibition of wild-type human partial length FLT4 (E821 to E1196 residues) expressed in bacterial expression system assessed as residual activity at 1 uM by Kinomescan method relative to control
[10] = target: Glycogen synthase kinase-3 beta (Homo sapiens) (UniProt P49841); experiment: Inhibition of wild-type human full length GSK3B (M1 to T433 residues) expressed in mammalian expression system assessed as residual activity at 1 uM by Kinomescan method relative to control
[11] = target: Mast/stem cell growth factor receptor Kit (Homo sapiens) (UniProt P10721); experiment: Inhibition of wild-type human partial length autoinhibited KIT (Y545 to D952 residues) expressed in mammalian expression system assessed as residual activity at 1 uM by Kinomescan method relative to control
[12] = target: Serine/threonine-protein kinase STK11 (Homo sapiens) (UniProt Q15831); experiment: Inhibition of wild-type human full length LKB1 (M1 to Q433 residues) expressed in bacterial expression system assessed as residual activity at 1 uM by Kinomescan method relative to control
[13] = target: Mitogen-activated protein kinase kinase kinase 1 (Homo sapiens) (UniProt Q13233); experiment: Inhibition of wild-type human partial length MAP3K1 (L1202 to W1512 residues) expressed in mammalian expression system assessed as residual activity at 1 uM by Kinomescan method relative to control
[14] = target: Mitogen-activated protein kinase kinase kinase 2 (Homo sapiens) (UniProt Q9Y2U5); experiment: Inhibition of wild-type human partial length MAP3K2 (S315 to H619 residues) expressed in mammalian expression system assessed as residual activity at 1 uM by Kinomescan method relative to control
[15] = target: Hepatocyte growth factor receptor (Homo sapiens) (UniProt P08581); experiment: Inhibition of wild-type human partial length MET (D1010 to S1367 residues) expressed in bacterial expression system assessed as residual activity at 1 uM by Kinomescan method relative to control
[16] = target: Mitogen-activated protein kinase kinase kinase 9 (Homo sapiens) (UniProt P80192); experiment: Inhibition of wild-type human partial length MLK1 (V88 to W426 residues) expressed in bacterial expression system assessed as residual activity at 1 uM by Kinomescan method relative to control
Chain of Mitogen-activated protein kinase kinase kinase 9 (Homo sapiens) (P80192 whole entry, looked up, the tested form may be a part): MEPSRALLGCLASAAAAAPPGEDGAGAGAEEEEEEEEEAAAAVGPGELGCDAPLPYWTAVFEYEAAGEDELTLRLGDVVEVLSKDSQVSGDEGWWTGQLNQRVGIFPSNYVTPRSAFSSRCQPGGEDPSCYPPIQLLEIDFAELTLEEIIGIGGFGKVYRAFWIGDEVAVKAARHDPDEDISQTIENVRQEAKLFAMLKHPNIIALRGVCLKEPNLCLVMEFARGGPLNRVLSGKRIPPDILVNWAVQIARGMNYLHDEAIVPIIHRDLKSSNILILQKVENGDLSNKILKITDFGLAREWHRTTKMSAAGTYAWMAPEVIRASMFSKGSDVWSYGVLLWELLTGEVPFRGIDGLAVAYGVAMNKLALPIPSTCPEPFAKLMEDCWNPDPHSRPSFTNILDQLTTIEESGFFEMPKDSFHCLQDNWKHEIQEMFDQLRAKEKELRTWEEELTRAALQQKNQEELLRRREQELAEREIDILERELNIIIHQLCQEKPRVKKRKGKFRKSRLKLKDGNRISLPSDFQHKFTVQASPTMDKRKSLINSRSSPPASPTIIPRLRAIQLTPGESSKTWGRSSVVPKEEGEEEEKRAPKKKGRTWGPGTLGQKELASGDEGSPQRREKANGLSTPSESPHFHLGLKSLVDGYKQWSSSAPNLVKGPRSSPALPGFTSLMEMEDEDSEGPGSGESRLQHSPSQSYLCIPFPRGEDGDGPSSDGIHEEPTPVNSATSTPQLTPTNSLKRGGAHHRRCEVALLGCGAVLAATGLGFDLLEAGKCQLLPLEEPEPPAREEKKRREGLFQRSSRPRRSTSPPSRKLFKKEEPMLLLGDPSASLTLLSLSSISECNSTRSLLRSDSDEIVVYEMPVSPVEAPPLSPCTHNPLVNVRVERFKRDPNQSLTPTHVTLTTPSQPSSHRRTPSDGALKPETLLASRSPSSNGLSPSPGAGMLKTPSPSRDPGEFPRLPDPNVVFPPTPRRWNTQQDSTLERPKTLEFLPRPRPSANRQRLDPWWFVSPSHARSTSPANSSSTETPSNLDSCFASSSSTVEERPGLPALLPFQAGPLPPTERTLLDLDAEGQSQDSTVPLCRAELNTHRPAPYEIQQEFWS

[17] = target: Muscle, skeletal receptor tyrosine-protein kinase (Homo sapiens) (UniProt O15146); experiment: Inhibition of wild-type human partial length MUSK (M553 to V869 residues) expressed in bacterial expression system assessed as residual activity at 1 uM by Kinomescan method relative to control
[18] = target: Phosphatidylinositol 3-kinase C2 domain-containing subunit gamma (Homo sapiens) (UniProt O75747); experiment: Inhibition of wild-type human partial length PIK3C2G (M1 to I1446 residues) expressed in mammalian expression system assessed as residual activity at 1 uM by Kinomescan method relative to control
[19] = test system: Phosphatidylinositol 4,5-bisphosphate 3-kinase catalytic subunit alpha isoform (Homo sapiens), P42336 [C420R]; experiment: Inhibition of human partial length PIK3CA C420R mutant (R108 to N1068 residues) expressed in mammalian expression system assessed as residual activity at 1 uM by Kinomescan method relative to control
[20] = test system: Phosphatidylinositol 4,5-bisphosphate 3-kinase catalytic subunit alpha isoform (Homo sapiens), P42336 [M1043I]; experiment: Inhibition of human partial length PIK3CA M1043I mutant (R108 to N1068 residues) expressed in mammalian expression system assessed as residual activity at 1 uM by Kinomescan method relative to control
[21] = target: Phosphatidylinositol 4,5-bisphosphate 3-kinase catalytic subunit gamma isoform (Homo sapiens) (UniProt P48736); experiment: Inhibition of wild-type human partial length PIK3CG (S144 to A1102 residues) expressed in mammalian expression system assessed as residual activity at 1 uM by Kinomescan method relative to control
[22] = target: Membrane-associated tyrosine- and threonine-specific cdc2-inhibitory kinase (Homo sapiens) (UniProt Q99640); experiment: Inhibition of wild-type human partial length PKMYT1 (A88 to G366 residues) expressed in bacterial expression system assessed as residual activity at 1 uM by Kinomescan method relative to control
Chain of Membrane-associated tyrosine- and threonine-specific cdc2-inhibitory kinase (Homo sapiens) (Q99640 whole entry, the tested form may be a part): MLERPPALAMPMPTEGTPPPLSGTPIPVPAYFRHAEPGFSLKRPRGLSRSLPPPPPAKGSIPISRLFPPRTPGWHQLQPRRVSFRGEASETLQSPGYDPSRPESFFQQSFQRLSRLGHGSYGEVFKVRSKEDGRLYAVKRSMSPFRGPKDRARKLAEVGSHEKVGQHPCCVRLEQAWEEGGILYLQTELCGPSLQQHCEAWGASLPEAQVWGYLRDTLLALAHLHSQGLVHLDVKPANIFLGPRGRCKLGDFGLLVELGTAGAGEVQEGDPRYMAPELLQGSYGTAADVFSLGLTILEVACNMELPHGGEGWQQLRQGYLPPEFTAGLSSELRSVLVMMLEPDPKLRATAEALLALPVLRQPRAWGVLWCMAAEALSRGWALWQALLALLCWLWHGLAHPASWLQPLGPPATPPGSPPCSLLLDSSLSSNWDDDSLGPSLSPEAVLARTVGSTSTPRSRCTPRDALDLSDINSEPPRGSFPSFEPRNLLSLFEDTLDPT

[23] = target: Serine/threonine-protein kinase N2 (Homo sapiens) (UniProt Q16513); experiment: Inhibition of wild-type human partial length PKN2 (E634 to C984 residues) expressed in bacterial expression system assessed as residual activity at 1 uM by Kinomescan method relative to control
Chain of Serine/threonine-protein kinase N2 (Homo sapiens) (Q16513 whole entry, looked up, the tested form may be a part): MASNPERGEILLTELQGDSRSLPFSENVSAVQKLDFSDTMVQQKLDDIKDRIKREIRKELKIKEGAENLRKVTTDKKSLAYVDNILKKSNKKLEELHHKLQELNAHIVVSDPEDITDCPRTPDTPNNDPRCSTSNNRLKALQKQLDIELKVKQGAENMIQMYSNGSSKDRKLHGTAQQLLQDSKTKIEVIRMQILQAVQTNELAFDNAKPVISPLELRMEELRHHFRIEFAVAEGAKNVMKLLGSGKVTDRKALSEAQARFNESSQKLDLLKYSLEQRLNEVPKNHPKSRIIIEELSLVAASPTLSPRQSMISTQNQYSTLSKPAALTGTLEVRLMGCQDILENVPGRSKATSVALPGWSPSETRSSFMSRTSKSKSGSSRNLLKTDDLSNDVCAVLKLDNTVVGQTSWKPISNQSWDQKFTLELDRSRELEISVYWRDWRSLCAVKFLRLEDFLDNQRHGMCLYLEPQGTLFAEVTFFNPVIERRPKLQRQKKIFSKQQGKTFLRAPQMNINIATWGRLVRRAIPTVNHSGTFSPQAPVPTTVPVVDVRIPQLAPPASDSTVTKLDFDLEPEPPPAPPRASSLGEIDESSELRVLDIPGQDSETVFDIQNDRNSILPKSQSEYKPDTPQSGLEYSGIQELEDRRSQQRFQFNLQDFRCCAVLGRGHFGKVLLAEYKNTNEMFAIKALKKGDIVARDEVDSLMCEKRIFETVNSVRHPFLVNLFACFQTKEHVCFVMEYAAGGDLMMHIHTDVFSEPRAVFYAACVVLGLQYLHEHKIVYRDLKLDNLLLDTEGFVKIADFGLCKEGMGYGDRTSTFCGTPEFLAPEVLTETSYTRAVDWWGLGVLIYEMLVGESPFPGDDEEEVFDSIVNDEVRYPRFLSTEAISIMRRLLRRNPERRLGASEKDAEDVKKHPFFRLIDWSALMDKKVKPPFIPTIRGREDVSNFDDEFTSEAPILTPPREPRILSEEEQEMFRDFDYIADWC

[24] = target: Serine/threonine-protein kinase 32A (Homo sapiens) (UniProt Q8WU08); experiment: Inhibition of wild-type human full length YANK1 (M1 to L396 residues) expressed in mammalian expression system assessed as residual activity at 1 uM by Kinomescan method relative to control
Chain of Serine/threonine-protein kinase 32A (Homo sapiens) (Q8WU08 whole entry, the tested form may be a part): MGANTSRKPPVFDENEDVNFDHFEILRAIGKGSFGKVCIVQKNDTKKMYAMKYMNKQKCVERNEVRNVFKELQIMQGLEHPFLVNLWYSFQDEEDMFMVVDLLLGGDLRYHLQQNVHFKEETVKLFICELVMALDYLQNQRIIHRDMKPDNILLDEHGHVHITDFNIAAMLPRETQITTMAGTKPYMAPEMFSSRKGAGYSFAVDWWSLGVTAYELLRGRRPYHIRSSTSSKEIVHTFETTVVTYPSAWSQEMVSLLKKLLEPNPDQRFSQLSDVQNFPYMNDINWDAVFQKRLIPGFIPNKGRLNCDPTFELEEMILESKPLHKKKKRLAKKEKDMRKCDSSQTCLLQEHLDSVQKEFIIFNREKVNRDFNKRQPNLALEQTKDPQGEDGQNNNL

For `C=CC(=O)Nc1cc(Nc2cc(-c3cccc(NC(=O)c4ccc(C(C)(C)C)cc4)c3C)cn(C)c2=O)ccc1C(=O)N1CCOCC1`, the Activity [1] was 97%, the Activity [2] was 86% and the Activity [3] was 100%. The Activity [4] was 100%, the Activity [5] was 100% and the Activity [6] was 100%. It also gave an Activity [7] of 97%, an Activity [8] of 97% and an Activity [9] of 100%. It also gave an Activity [10] of 87%, an Activity [11] of 100% and an Activity [12] of 98%. It also gave an Activity [13] of 91%, an Activity [14] of 89% and an Activity [15] of 96%. For the same molecule, the Activity [16] was 99%, the Activity [17] was 91% and the Activity [18] was 95%. It also gave an Activity [19] of 100%, an Activity [20] of 100% and an Activity [21] of 100%. The Activity [22] was 91%, the Activity [23] was 93% and the Activity [24] was 83%.

Reference: ChEMBL document CHEMBL4024706 (Eur J Med Chem, 2017)
